Laboratory results from ChEMBL document CHEMBL5518215, “Unlocking Antibacterial Potential: Key-Site-Based Regulation of Antibacterial Spectrum of Peptides” (J Med Chem, 2024).
The source made the active and inactive calls. The rule behind the calls is not given here.

Key:
Salmonella typhimurium [1] = assay: Antimicrobial activity against Salmonella typhimurium C7731 assessed as bacterial killing measured after 16 hrs incubation; format: functional, Salmonella enterica subsp. enterica serovar Typhimurium; conditions: Salmonella enterica
Bacillus cereus [2] = assay: Antimicrobial activity against Bacillus cereus 1.932 assessed as bacterial killing measured after 16 hrs incubation; format: functional
[3] = Cytotoxicity against porcine IPEC-J2 cells assessed as cell survival rate measured after 8 hrs by MTT assay; format: toxicity, cell-based, Sus scrofa; conditions: pig
Escherichia coli [4] = assay: Antibacterial activity against Escherichia coli 25922 assessed as absence bacterial growth measured after 18 to 24 hrs incubation at pH 10 by NCCLS method; format: functional; conditions: time 18-24 hrs
Escherichia coli [5] = assay: Antibacterial activity against Escherichia coli 25922 assessed as absence bacterial growth measured after 8 hrs treated with H2O2; format: functional
Bacillus cereus [6] = assay: Antimicrobial activity against Bacillus cereus 1.932 assessed as absence bacterial growth measured after 18 to 24 hrs incubation by NCCLS method; format: functional; conditions: time 18-24 hrs
[7] = tested on: Staphylococcus epidermidis; assay: Antimicrobial activity against Staphylococcus epidermidis 12228 assessed as bacterial killing measured after 16 hrs incubation; format: functional
[8] = Cytotoxicity against porcine IPEC-J2 cells assessed as cell survival rate at 64 uM measured after 8 hrs by MTT assay relative to control; format: toxicity, cell-based, Sus scrofa; conditions: pig, read-out: Activity
Escherichia coli [9] = assay: Effect on inner membrane fluidity in Escherichia coli 25922 assessed as reduction in intracellular membrane fluidity by measuring fluorescence intensity of Laurdan-GP after 60 mins by spectrophotometry; format: functional, organism-based
Escherichia coli [10] = assay: Inhibition of respiratory chain dehydrogenase activity in mid-log phase Escherichia coli 25922 measured after 4 hrs by Red-tetraazoline based spectrophotometry assay
Escherichia coli [11] = assay: Antimicrobial activity against Escherichia coli 25922 assessed as absence bacterial growth measured after 18 to 24 hrs incubation by NCCLS method; format: functional; conditions: time 18-24 hrs
[12] = Hemolytic activity in human RBC at effective concentration at 128 uM measured after 1 hr by microplate reader relative to control; format: toxicity, cell-based, Erythrocyte; conditions: human red blood cells (erythrocytes), read-out: Activity
[13] = Cytotoxicity against human HEK-293T cells assessed as cell survival rate measured after 8 hrs by MTT assay; format: toxicity, cell-based
Cell membrane [14] = assay: Induction of membrane disruption in Staphylococcus aureus 29213 assessed as increase in extracellular ATP level at 4 to 32 uM measured after 1 hr; format: cell membranes; conditions: dose 4-32 µM
[15] = Cytotoxicity against mouse RAW264.7 cells assessed as cell survival rate measured after 8 hrs by MTT assay; format: toxicity, cell-based
Pseudomonas aeruginosa = assay: Antimicrobial activity against Pseudomonas aeruginosa 27853 assessed as absence bacterial growth measured after 18 to 24 hrs incubation by NCCLS method; format: functional; conditions: time 18-24 hrs
Cell membrane [16] = assay: Induction of cytoplasmic membrane disruption in Staphylococcus aureus 29213 assessed as increase in fluorescence intensity measured upto 30 mins by DiSC3-5 probe based assay; format: cell membranes; conditions: dose 2-64 µM
Staphylococcus aureus [17] = assay: Inhibition of respiratory chain dehydrogenase activity in mid-log phase Staphylococcus aureus 29213 measured after 4 hrs by Red-tetraazoline based spectrophotometry assay
Cell membrane [18] = assay: Induction of cytoplasmic membrane disruption in Escherichia coli 25922 assessed as increase in fluorescence intensity measured upto 30 mins by DiSC3-5 probe based assay; format: cell membranes; conditions: dose 2-64 µM
Cell membrane [19] = assay: Induction of cytoplasmic membrane disruption in Escherichia coli 25922 assessed as increase in fluorescence intensity at 2 to 64 uM by DiSC3-5 probe based assay; format: cell membranes; conditions: dose 2-64 µM, time <= 30.0 min, TDE = time-dependent effect
Staphylococcus aureus [20] = assay: Antimicrobial activity against Methicillin-resistant Staphylococcus aureus 43300 assessed as bacterial killing measured after 16 hrs incubation; format: functional
Enterococcus faecalis [21] = assay: Antimicrobial activity against Enterococcus faecalis 29212 assessed as absence bacterial growth measured after 18 to 24 hrs incubation by NCCLS method; format: functional; conditions: time 18-24 hrs
Staphylococcus aureus [22] = assay: Induction of morphological changes in Staphylococcus aureus 29213 assessed as loose distribution of cellular contents by using transmission electron microscopy; format: functional, organism-based
Escherichia coli [23] = assay: Antimicrobial activity against Escherichia coli 25922 assessed as absence bacterial growth measured after 18 to 24 hrs incubation in presence of NH4Cl by NCCLS method; format: functional; conditions: time 18-24 hrs
Escherichia coli [24] = assay: Antibacterial activity against Escherichia coli 25922 assessed as absence bacterial growth measured after 4 hrs treated with H2O2; format: functional
Escherichia coli [25] = assay: Antibacterial activity against Escherichia coli 25922 assessed as absence bacterial growth measured after 18 to 24 hrs incubation at pH 4 by NCCLS method; format: functional; conditions: time 18-24 hrs
[26] = Antimicrobial activity against Salmonella pullorum C7913 assessed as absence bacterial growth measured after 18 to 24 hrs incubation by NCCLS method; format: functional, Salmonella enterica subsp. enterica serovar Pullorum; conditions: Salmonella enterica, time 18-24 hrs
Enterococcus faecalis [27] = assay: Antimicrobial activity against Enterococcus faecalis 29212 assessed as bacterial killing measured after 16 hrs incubation; format: functional
Salmonella typhimurium [28] = assay: Antimicrobial activity against Salmonella typhimurium C7731 assessed as absence bacterial growth measured after 18 to 24 hrs incubation by NCCLS method; format: functional, Salmonella enterica subsp. enterica serovar Typhimurium; conditions: Salmonella enterica, time 18-24 hrs
Escherichia coli [29] = assay: Antimicrobial activity against Escherichia coli 25922 assessed as absence bacterial growth measured after 18 to 24 hrs incubation in presence of KCl by NCCLS method; format: functional; conditions: time 18-24 hrs
Escherichia coli [30] = assay: Antimicrobial activity against Escherichia coli 25922 assessed as absence bacterial growth measured after 18 to 24 hrs incubation in presence of 12.5% serum by NCCLS method; format: functional; conditions: time 18-24 hrs
Cell membrane [31] = assay: Induction of membrane disruption in Escherichia coli 25922 assessed as increase in extracellular ATP level at 4 to 32 uM measured after 1 hr; format: cell membranes; conditions: dose 4-32 µM
Escherichia coli [32] = assay: Outer membrane permeabilization/cell wall in Escherichia coli 25922 assessed as fluorescence intensity of NPN measured at 2 to 128 uM after 1 hr by spectrophotometry; format: functional, organism-based; conditions: dose 2-128 µM
Escherichia coli [33] = assay: Antimicrobial activity against Escherichia coli 25922 assessed as absence bacterial growth measured after 18 to 24 hrs incubation in presence of ZnCl2 by NCCLS method; format: functional; conditions: time 18-24 hrs

Substance H-GKLWLKAGKLWLKGGKLWLKG-NH2 has an MBC (Salmonella typhimurium [1]) of 32 µM, an MBC (Bacillus cereus [2]) of 2 µM and an IC50 at 8 h [3] of over 64 µM. For the same substance, the MIC (Escherichia coli [4]) was 2 µM, the MIC (Escherichia coli [5]) was 2 µM and the MIC (Bacillus cereus [6]) was 2 µM. The MBC [7] was 8 µM, the viability at 8 h, 64 µM [8] was over 80% and the Activity (Escherichia coli [9]) was “Active”. The inhibition (Escherichia coli [10]) was “Active”, the MIC (Escherichia coli [11]) was 2 µM and the hemolysis at 1 h, 128 µM [12] was under 10%. For the same substance, the IC50 at 8 h [13] was over 64 µM, the Activity (Cell membrane [14]) was “Active” and the IC50 at 8 h [15] was over 64 µM. The MIC (Pseudomonas aeruginosa) was 4 µM, the Activity (Cell membrane [16]) was “Dose-Dependent Effect” and the inhibition (Staphylococcus aureus [17]) was “Active”. For the same substance, the Activity (Cell membrane [18]) was “Dose-Dependent Effect”, the Activity (Cell membrane [19]) was “Tde” and the MBC (Staphylococcus aureus [20]) was 4 µM. For the same substance, the MIC (Enterococcus faecalis [21]) was 4 µM, the Activity (Staphylococcus aureus [22]) was “Active” and the MIC (Escherichia coli [23]) was 2 µM. It also gave an MIC (Escherichia coli [24]) of 2 µM, an MIC (Escherichia coli [25]) of over 64 µM and an MIC [26] of 1 µM. It also gave an MBC (Enterococcus faecalis [27]) of 8 µM, an MIC (Salmonella typhimurium [28]) of 8 µM and an MIC (Escherichia coli [29]) of 2 µM. For the same substance, the MIC (Escherichia coli [30]) was 16 µM, the Activity (Cell membrane [31]) was “Active” and the permeability (Escherichia coli [32]) was “Permeable”. The MIC (Escherichia coli [33]) was 2 µM.
